The supplement of paper PMC10307832

Key:
Test in all cases: relative viability (nuclei count vs DMSO), 5 days (fraction); higher = more cells survive
Linsitinib + Lapatinib = compound: C[C@]1(O)C[C@@H](c2nc(-c3ccc4ccc(-c5ccccc5)nc4c3)c3c(N)nccn32)C1 [Linsitinib] + CS(=O)(=O)CCNCc1ccc(-c2ccc3ncnc(Nc4ccc(OCc5cccc(F)c5)c(Cl)c4)c3c2)o1 [Lapatinib] (partner 2 µM)
Procedure, shortened: (§1)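 Five library-drug doses in √10 steps were combined with a fixed anchor-drug dose, or a single drug was given alone, by pin tool to lung cancer cell lines in 1536-well plates the day after seeding. Nuclei were stained and counted after 5 days. Relative viability is the nuclei count in treated wells over that in vehicle wells, taken as the median of duplicate plates.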

Linsitinib + Vorinostat = compound: C[C@]1(O)C[C@@H](c2nc(-c3ccc4ccc(-c5ccccc5)nc4c3)c3c(N)nccn32)C1 [Linsitinib] + O=C(CCCCCCC(=O)Nc1ccccc1)NO [Vorinostat] (partner 1 µM)
Procedure, shortened: as §1

Ispinesib + Palbociclib = compound: Cc1ccc(C(=O)N(CCCN)[C@@H](c2nc3cc(Cl)ccc3c(=O)n2Cc2ccccc2)C(C)C)cc1 [Ispinesib] + CC(=O)c1c(C)c2cnc(Nc3ccc(N4CCNCC4)cn3)nc2n(C2CCCC2)c1=O [Palbociclib] (partner 0.5 µM)
Procedure, shortened: as §1

Ispinesib + Linsitinib = compound: Cc1ccc(C(=O)N(CCCN)[C@@H](c2nc3cc(Cl)ccc3c(=O)n2Cc2ccccc2)C(C)C)cc1 [Ispinesib] + C[C@]1(O)C[C@@H](c2nc(-c3ccc4ccc(-c5ccccc5)nc4c3)c3c(N)nccn32)C1 [Linsitinib] (partner 1 µM)
Procedure, shortened: as §1

Cell Line | relative viability (Linsitinib + Lapatinib; first compound 0.01 µM) | relative viability (Linsitinib + Lapatinib; first compound 0.03162 µM) | relative viability (Linsitinib + Lapatinib; first compound 0.1 µM) | relative viability (Linsitinib + Lapatinib; first compound 0.3162 µM) | relative viability (Linsitinib + Lapatinib; first compound 1 µM) | relative viability (Linsitinib + Vorinostat; first compound 0.01 µM) | relative viability (Linsitinib + Vorinostat; first compound 0.03162 µM) | relative viability (Linsitinib + Vorinostat; first compound 0.1 µM) | relative viability (Linsitinib + Vorinostat; first compound 0.3162 µM) | relative viability (Linsitinib + Vorinostat; first compound 1 µM) | relative viability (Ispinesib + Palbociclib; first compound 0.001 µM) | relative viability (Ispinesib + Palbociclib; first compound 0.003162 µM) | relative viability (Ispinesib + Palbociclib; first compound 0.01 µM) | relative viability (Ispinesib + Palbociclib; first compound 0.03162 µM) | relative viability (Ispinesib + Palbociclib; first compound 0.1 µM) | relative viability (Ispinesib + Linsitinib; first compound 0.001 µM) | relative viability (Ispinesib + Linsitinib; first compound 0.003162 µM) | relative viability (Ispinesib + Linsitinib; first compound 0.01 µM) | relative viability (Ispinesib + Linsitinib; first compound 0.03162 µM) | relative viability (Ispinesib + Linsitinib; first compound 0.1 µM)
NCI-H358 | 0.423 | 0.388 | 0.388 | 0.366 | 0.303 | 0.74 | 0.564 | 0.812 | 0.55 | 0.368 | 0.125 | 0.13 | 0.143 | 0.106 | 0.0965 | 0.785 | 0.671 | 0.735 | 0.397 | 0.236
ABC-1 | 1.13 | 1.5 | 1.32 | 1.34 | 1.21 | 1.4 | 1.2 | 0.97 | 0.803 | 0.796 | 0.578 | 0.665 | 0.765 | – | 0.49 | 0.94 | 0.874 | 0.965 | 0.376 | 0.338
NCI-H1395 | 1.08 | 0.803 | 1.12 | 0.83 | 0.906 | 0.671 | – | 0.821 | 0.68 | 0.644 | 0.721 | 0.642 | 0.412 | 0.444 | 0.463 | 1.1 | 1.04 | 0.966 | 0.407 | 0.436
NCI-H2085 | 0.701 | 0.822 | 0.822 | 0.753 | 0.658 | 0.778 | 0.707 | 0.791 | 0.8 | 0.681 | 0.384 | 0.411 | 0.481 | 0.469 | 0.402 | 0.954 | 1.01 | 0.904 | 0.777 | 0.605
NCI-H2087 | 0.886 | 1.26 | 1.13 | 0.349 | 0.626 | 0.68 | 0.74 | 0.702 | 0.693 | 0.795 | 0.206 | 0.224 | 0.262 | 0.172 | 0.112 | 1.02 | 0.979 | 1.02 | 0.459 | 0.167
NCI-H322M | 0.63 | 0.612 | 0.567 | 0.933 | 0.507 | 0.912 | 0.927 | 0.953 | 1 | 0.623 | 0.5 | 0.505 | 0.494 | 0.463 | 0.426 | 0.966 | 0.945 | 1.01 | 0.569 | 0.921
NCI-H1734 | 1.05 | 1.15 | 1.05 | 0.714 | 0.778 | 0.865 | 0.727 | 0.877 | 0.554 | 0.541 | 0.396 | 0.224 | 0.41 | 0.346 | 0.279 | 0.911 | 0.92 | 1 | 0.878 | 0.634
NCI-H2228 | 0.978 | 0.839 | 1.08 | 0.663 | 0.8 | 0.593 | 0.409 | 0.664 | 0.465 | 0.476 | 1 | 1.05 | 1.08 | 0.544 | 0.386 | 0.839 | 0.607 | 1 | 0.803 | 0.338
EKVX | 0.212 | 0.262 | 0.231 | 0.23 | 0.161 | 0.753 | 0.785 | 0.798 | 0.481 | 0.496 | 0.456 | – | 0.409 | 0.463 | 0.295 | 1.15 | 1.05 | 1.17 | 0.927 | 0.454
NCI-H1975 | 0.825 | 0.82 | 0.866 | 1.04 | 0.684 | 0.752 | 0.614 | 0.748 | 0.575 | 0.632 | 0.663 | 0.683 | 0.581 | 0.311 | 0.192 | 1.01 | 0.946 | 1.06 | 0.508 | 0.189
NCI-H1666 | 0.806 | 0.506 | 0.477 | 0.163 | 0.183 | 1 | 1.06 | 1.02 | 0.617 | 0.922 | 0.736 | 0.63 | 0.679 | 0.705 | 0.52 | 1.05 | 0.907 | 0.833 | 0.767 | 0.408
PC-3 [JPC-3] | 0.43 | 0.455 | 0.405 | 0.369 | 0.373 | 0.78 | 0.784 | 0.843 | 0.492 | 0.571 | 0.533 | 0.55 | 0.548 | 0.553 | 0.395 | 0.937 | 0.917 | 0.949 | 0.989 | 1.03
NCI-H1755 | 1.01 | 1.02 | 1.04 | 0.54 | 0.876 | 0.741 | 0.773 | 0.821 | 0.58 | 0.727 | 0.467 | 0.451 | 0.457 | 0.431 | 0.463 | 1.03 | 1.1 | 1.14 | 0.906 | 0.422
RERF-LC-KJ | 0.8 | 0.846 | 0.826 | 0.554 | 0.645 | 0.552 | 0.608 | 0.649 | 0.293 | 0.455 | 1.11 | 1.03 | 0.935 | 0.68 | 0.583 | 1.01 | 0.855 | 1.02 | 0.819 | 0.244
NCI-H647 | 1.12 | 1.11 | 1.09 | – | 0.854 | 0.57 | 0.583 | 0.458 | 0.368 | 0.646 | 0.393 | 0.327 | 0.518 | 0.208 | 0.0953 | 1.2 | 1.26 | 0.949 | 0.607 | 0.144
BEN | 0.84 | 0.685 | 0.563 | – | 0.58 | 0.513 | 0.573 | 0.534 | 0.434 | 0.474 | 0.463 | 0.514 | 0.478 | 0.47 | 0.372 | 1 | 1.12 | 1.06 | 0.682 | 0.32
201T | 0.967 | 1.06 | 1.07 | 0.789 | 0.978 | 0.941 | 1.06 | 0.972 | 0.487 | 0.832 | 0.378 | 0.407 | 0.361 | 0.409 | 0.345 | 1.08 | 1.06 | 1.06 | 1.01 | 0.988
LC-2-ad | 0.934 | 0.691 | 0.941 | 0.332 | 0.766 | 0.719 | 0.693 | 0.692 | 0.487 | 0.443 | 0.541 | 0.54 | 0.566 | 0.482 | 0.272 | 0.842 | 0.845 | 0.971 | 0.556 | 0.184
LCLC-97TM1 | 0.953 | 0.75 | 0.639 | 0.403 | 0.193 | 0.756 | 0.711 | 0.674 | 0.103 | 0.191 | 0.238 | 0.343 | 0.279 | 0.181 | 0.119 | 0.205 | 0.152 | 0.175 | 0.262 | 0.169
NCI-H1915 | 0.984 | 1.01 | 0.981 | 0.608 | 0.723 | 0.547 | 0.51 | 0.528 | 0.46 | 0.394 | 0.528 | 0.694 | 0.542 | 0.491 | 0.41 | 1.13 | 1.24 | 1.08 | 1.12 | 1.03
NCI-H3122 | 1.04 | 1.06 | 0.982 | 0.737 | 1.12 | 0.966 | 0.921 | 0.98 | – | 0.702 | 0.221 | 0.216 | 0.216 | 0.202 | 0.157 | 1.07 | 1.09 | 1.07 | 1.13 | 0.251
NCI-H1993 | 0.784 | 0.793 | 0.76 | 0.498 | 0.684 | 0.936 | 0.737 | 0.781 | 0.286 | 0.644 | 0.566 | 0.404 | 0.66 | 0.673 | 0.487 | 0.631 | 0.724 | 0.749 | 0.716 | 0.675
NCI-H2405 | 1.12 | 1.04 | 1.07 | 0.887 | 0.735 | 1.04 | 0.907 | 0.973 | 0.698 | 0.487 | 0.546 | 0.555 | 0.512 | 0.479 | 0.397 | 0.974 | 0.755 | 0.968 | 0.783 | 0.435
NCI-H661 | 0.566 | 0.501 | 0.514 | 0.691 | 0.424 | 0.76 | 0.829 | 0.75 | 0.699 | 0.825 | 0.398 | 0.4 | 0.406 | 0.282 | 0.248 | 0.535 | 0.528 | 0.462 | 0.494 | 0.605
